# Assay results: patent US7875625B2, “Cyclohepta[b]pyridine-3-carbonylguanidine derivative and pharmaceutical product containing same” (Toa Eiyo Ltd., priority 2005, dated 2011)
# Assays:
# [1] = Comparative test for transferability to the brain in rat; format: in vivo; settings: male SD rats, 50 mg/kg via tail vein
# Procedure: To male SD rats (6 weeks old), the Control Compound or the Inventive Compound 2 was administered through the tail vein in an amount of 50 mg/kg. After administration, whole blood samples were collected over time from the abdominal aorta under etherization, and the brain tissues were extracted immediately. The brain tissues were lightly washed off to remove the blood attached around with physiological saline, and subsequently the tissues were frozen in liquid nitrogen and preserved at −30° C. until analyzed. The blood was centrifuged at 4° C. at a rotation speed of 15000 for 15 minutes to separate the supernatant plasma, and was preserved at −30° C. until analyzed. The brain tissues were thawed by standing at ambient temperature, and then the wet weight was measured. Distilled water was added in an amount five times of the wet weight, and a suspension was prepared using a Polytron homogenizer. The measurement of the test compound concentration in the plasma and the brain tissues was performed by LC/MS/MS. The transferability of the drug to the brain was calculated by dividing the drug concentration in the brain tissues by the plasma concentration obtained at the same time.
# Na^+/H^+ exchanger (NHE) = biological target: T1, Na^+/H^+ exchanger (NHE) (Rattus norvegicus, UniProt P26431); experiment: NHE inhibitory effect test (swelling of rat platelets induced by sodium propionate); format: cell-based; settings: rat platelet-rich plasma, sodium propionate buffer pH 6.7; 300 μM Amiloride taken as 100% inhibition; Probit method
# T1 construct: from tissue; host or cells: platelet-rich plasma from Wistar rat blood
# Procedure: The NHE inhibitory activity was measured according to the method by Scholz et al. [British Journal of Pharmacology, Vol. 109, p. 562-568 (1993)], taking the swelling of rat platelets induced by sodium propionate as an index.
# Under etherization, blood was collected (8 mL) from the abdominal aorta of a Wistar rat, and 1 mL of a citrate dextrose solution as an anticoagulant was added. The blood sample was immediately centrifuged at 90×g for 10 minutes, and then the collected supernatant was taken as platelet-rich plasma. Subsequently, to 250 μL of a 140 mM sodium propionate buffer solution containing the test compound dissolved in dimethylsulfoxide (pH 6.7, final dimethylsulfoxide concentration 1%), the platelet-rich plasma prepared in the above (number of platelet; 10×10^6/50 μL) was added, and the decrease in the absorbance associated with the swelling of platelets was measured over time with a Hematracer (NKK Corp.).
# The rate of decrease in the absorbance at 20 seconds after the addition of the platelet-rich plasma was taken as the NHE activity, and the inhibitory activity of the respective compounds was expressed as a relative activity, while the action obtained upon addition of 300 μM of Amiloride was taken as 100% inhibition.
# In addition, the test results were obtained by calculating the concentration at which the inhibitory activity of the test compound becomes 50% (IC50 value), by a Probit method.
# [2] = Metabolic stability test in rat (generation of control compound in plasma); format: in vivo; settings: male SD rats
# From the text: The compound represented by Formula (1) of the present invention has a structure in which the hydroxyl group on the 9-position of a 9-hydroxymethyl-cyclohepta[b]pyridine-3-carbonylguanidine derivative is converted to a specific substituent. However, if the compound is metabolized in vivo to remove the specific substituent from the compound, there may be generated the original 9-hydroxymethyl-cyclohepta[b]pyridine-3-carbonylguanidine derivative, which has toxic effects on the central nervous system. Thus, the inventive compounds as synthesized in Examples were administered in vivo to study whether the control compound, which was the corresponding 9-hydroxymethyl product, was generated.
# Male SD rats (7 weeks old) were administered at 1 mg/kg (an amount calculated excluding salts) of the control compound, an equivalent amount of the Inventive Compound 2, 4, 6, 7 or 12, or Reference Compound 20, through the tail vein. After administration, about 0.2 mL of blood samples were collected after 5, 15, 30, 60 and 120 minutes, and the blood samples were centrifuged at 4° C. at a speed of rotation of 15000 for 15 minutes, thus to separate the supernatant plasma. The concentration of the control compound in the plasma was measured by LC/MS/MS. The measurement results were shown as +++ when the detected plasma concentration of the control compound is 200 ng/mL or greater; ++ for more than 100 ng/mL and less than 200 ng/mL; + for more than 20 ng/mL and less than 100 ng/mL; and − for less than 20 ng/mL or no detection.
# male mice = experiment: Toxicity test with 2-days repeated intraperitoneal administration in mouse; format: in vivo; settings: equivalent of 300 mg/kg control compound intraperitoneally once a day for 2 days
# Procedure: For three male mice in each group, 300 mg/kg of the Control Compound (an amount calculated excluding salts), or an equivalent amount of the Inventive Compound 2, 4, 6, 7 or 12 were intraperitoneally administered once a day for 2 days, and a histopathological tests were performed. The Control Compound, and the Inventive Compounds 2, 4 and 6 were suspended in a 0.5% tragacanth gum solution, and the Inventive Compound 7 was suspended in a 10 DMSO-containing 0.5% tragacanth gum solution, while the Inventive Compound 12 was suspended in olive oil. For the histopathological test, in order to make a more thorough examination of central nervous toxicity, the brain was examined after whole body was subjected to perfusion fixation with a 4% formaldehyde in neutral phosphate buffer as a fixing solution using a liquid transporting pump under pentobarbital sodium anesthesia.
# Beagle dogs = experiment: Toxicity test after 4-days repeated intravenous administration in beagle dogs; format: in vivo, dog; settings: equivalent of 30 mg/kg control compound intravenously once a day for 4 days
# Procedure: With one male and one female dogs in each group, 30 mg/kg of the Control Compound dissolved in physiological saline (an amount calculated excluding salts), or an equivalent amount of the Inventive Compound 2, 4, 6 or 8 was repeatedly administered intravenously once a day for 4 days, and general symptom observation and pharmacological histopathologic examination were performed.
# [3] = system: reperfusion-induced arrhythmia upon myocardial ischemia; experiment: Reperfusion-induced arrhythmia inhibitory action test; format: in vivo, rat; settings: male SD rats, 3.62 mmol/L, 1 mL/kg intravenous, within 10 minutes after reperfusion
# Procedure: Subsequently, in evaluation of the in vivo NHE inhibitory action, the effect of the test compound on reperfusion-induced arrhythmia upon myocardial ischemia was evaluated according to the method of Aihara et al. [European Journal of Pharmacology, Vol. 404, p. 221-229 (2000)]. Under anesthesia using pentobarbital sodium (60 mg/kg, intraperitoneal administration), cannulae were inserted into trachea, femoral vein and carotid artery of male SD rats ([…]) for artificial ventilation, drug administration and blood pressure measurement, respectively. The blood pressure was measured using a strain pressure amplifier via a pressure transducer, while the heart rate was measured from the blood pressure pulse wave using a cardiotachometer. Furthermore, an electrocardiogram (lead II) was measured from the electrodes attached to each four limbs. Next, under artificial ventilation, left thoracotomy was performed and a snare (5-0 nylon) was loosely placed around a blood vessel which was about 3 mm apart from the origin of the left coronary artery. Thereafter, it was confirmed that arrhythmia was not occurred for 10 minutes, and then the snare was fastened to induce local myocardial ischemia. Furthermore, after 4 minutes of myocardial ischemia, the compound was intravenously administered for 1 minute, and after 5 minutes of myocardial ischemia, the snare was loosened, then the arrhythmia occurred after reperfusion was recorded and analyzed with an arrhythmia analyzer (Softron Co., Ltd.), thereby the anti-arrhythmic action of the compound was evaluated. […] The control group was administered with physiological saline.
# With regard to the ventricular fibrillation (Vf) which occurred within 10 minutes after reperfusion (in the cases of halfway death, up to the time point where cardiac arrest was confirmed), arrhythmia analysis was performed according to the Guidelines for Lambeth Convention [Cardiovascular research, Vol. 22, p. 447-455, 1988], and evaluation was made in terms of the frequency of Vf occurrence, cumulative duration time of Vf, and the mortality.
# The frequency of Vf occurrence, cumulative duration of Vf, and the mortality for the respective test compounds are presented in Table 2.
# T1 sequence (P26431 whole entry): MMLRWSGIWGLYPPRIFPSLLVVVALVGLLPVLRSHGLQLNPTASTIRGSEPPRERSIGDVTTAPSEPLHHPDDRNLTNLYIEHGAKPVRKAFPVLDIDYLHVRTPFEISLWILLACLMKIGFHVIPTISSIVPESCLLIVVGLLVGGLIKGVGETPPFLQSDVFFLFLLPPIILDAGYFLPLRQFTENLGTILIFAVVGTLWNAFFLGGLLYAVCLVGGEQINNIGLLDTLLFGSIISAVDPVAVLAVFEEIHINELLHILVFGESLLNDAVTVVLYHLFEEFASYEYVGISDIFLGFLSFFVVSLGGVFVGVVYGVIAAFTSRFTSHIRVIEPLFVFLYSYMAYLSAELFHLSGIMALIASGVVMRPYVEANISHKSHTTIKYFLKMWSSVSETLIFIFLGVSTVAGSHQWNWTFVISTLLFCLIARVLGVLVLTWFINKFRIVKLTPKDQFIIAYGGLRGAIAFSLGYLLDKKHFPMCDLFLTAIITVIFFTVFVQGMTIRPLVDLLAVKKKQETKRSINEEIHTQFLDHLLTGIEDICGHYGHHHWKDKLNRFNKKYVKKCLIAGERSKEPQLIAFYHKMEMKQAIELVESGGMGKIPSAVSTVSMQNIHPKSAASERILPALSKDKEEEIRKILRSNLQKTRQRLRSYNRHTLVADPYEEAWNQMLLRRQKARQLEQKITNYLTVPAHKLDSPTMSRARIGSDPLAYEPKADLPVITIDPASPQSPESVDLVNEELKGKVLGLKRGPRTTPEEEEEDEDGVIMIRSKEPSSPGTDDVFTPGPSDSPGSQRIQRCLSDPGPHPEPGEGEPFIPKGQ
compound,measurement,setting,value
"Cc1nc2c(cc1C(=O)NC(=N)N)CCCCC2COS(=O)(=O)[O-].[Na+] (stereo not drawn) [Inventive Compound 2, 3-Guanidinocarbonyl-2-methyl-6,7,8,9-tetrahydro-5H-cyclohepta[b]pyridin-9-ylmethyl sulfate sodium salt]",Transferability to the brain tissues (in words),[1]; compared with the Control Compound,decreased transferability to the brain tissues
same,Kp at 15 min,"[1]; rat, brain/plasma, intravenous, 15 min, read-out: Concentration Intracerebral/Plasma, after 15 min",0.29
same,IC50,Na^+/H^+ exchanger (NHE),143 nM
same,"Plasma concentration of the control compound, after 5 min","[2]; equivalent of 1 mg/kg control compound via tail vein, LC/MS/MS, 5 min",− (− for less than 20 ng/mL or no detection)
same,"Plasma concentration of the control compound, after 15 min","[2]; equivalent of 1 mg/kg control compound via tail vein, LC/MS/MS, 15 min",− (− for less than 20 ng/mL or no detection)
same,"Plasma concentration of the control compound, after 30 min","[2]; equivalent of 1 mg/kg control compound via tail vein, LC/MS/MS, 30 min",− (− for less than 20 ng/mL or no detection)
same,"Plasma concentration of the control compound, after 60 min","[2]; equivalent of 1 mg/kg control compound via tail vein, LC/MS/MS, 60 min",− (− for less than 20 ng/mL or no detection)
same,"Plasma concentration of the control compound, after 120 min","[2]; equivalent of 1 mg/kg control compound via tail vein, LC/MS/MS, 120 min",− (− for less than 20 ng/mL or no detection)
same,Decomposition into the Control Compound in vivo (in words),"[2]; tail vein, plasma 5-120 min",not detected at any time point
same,Histopathological finding in the brain,male mice,any histologic finding which could be caused by drug administration was not recognized
same,General condition (symptom observation),Beagle dogs,only vomiting was recognized
same,Pathologic examination of the brain,Beagle dogs,any histologic finding which could be caused by drug administration was not recognized
same,Cumulative duration of Vf,[3],13.7 s
same,Frequency of Vf occurrence,[3],40%
same,Mortality,[3],20%
